Test results published in US6596719B1 (Actelio Pharmaceuticals Ltd., priority 1999, dated 2003).
pIC50: −log10 of the molar value. Read-outs that look alike come from different tables or passages of the source.

What was measured:
[1] = biological target: T1, human recombinant ETA receptors (Homo sapiens, UniProt P25101); assay: Inhibition of endothelin binding to membranes from CHO cells carrying human ET receptors (ETA)
T1 construct: expressed in transfected cells; host or cells: CHO cells (microsomal membranes)
T1 sequence (P25101 21-427): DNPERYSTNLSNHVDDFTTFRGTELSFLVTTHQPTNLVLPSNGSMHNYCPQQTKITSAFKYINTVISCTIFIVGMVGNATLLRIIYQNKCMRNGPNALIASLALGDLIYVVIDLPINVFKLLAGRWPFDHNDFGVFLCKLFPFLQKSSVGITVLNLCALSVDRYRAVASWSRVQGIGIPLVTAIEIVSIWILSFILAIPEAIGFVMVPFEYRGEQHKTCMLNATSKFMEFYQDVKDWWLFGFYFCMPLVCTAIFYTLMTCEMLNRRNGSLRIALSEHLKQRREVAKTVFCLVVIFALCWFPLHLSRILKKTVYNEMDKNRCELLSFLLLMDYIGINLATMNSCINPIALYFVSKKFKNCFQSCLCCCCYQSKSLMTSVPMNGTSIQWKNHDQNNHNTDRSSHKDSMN

[2] = biological target: T2, human recombinant ETB receptors (Homo sapiens, UniProt P24530); assay: Inhibition of endothelin binding to membranes from CHO cells carrying human ET receptors (ETB)
T2 construct: expressed in transfected cells; host or cells: CHO cells (microsomal membranes)
T2 sequence (P24530 27-442): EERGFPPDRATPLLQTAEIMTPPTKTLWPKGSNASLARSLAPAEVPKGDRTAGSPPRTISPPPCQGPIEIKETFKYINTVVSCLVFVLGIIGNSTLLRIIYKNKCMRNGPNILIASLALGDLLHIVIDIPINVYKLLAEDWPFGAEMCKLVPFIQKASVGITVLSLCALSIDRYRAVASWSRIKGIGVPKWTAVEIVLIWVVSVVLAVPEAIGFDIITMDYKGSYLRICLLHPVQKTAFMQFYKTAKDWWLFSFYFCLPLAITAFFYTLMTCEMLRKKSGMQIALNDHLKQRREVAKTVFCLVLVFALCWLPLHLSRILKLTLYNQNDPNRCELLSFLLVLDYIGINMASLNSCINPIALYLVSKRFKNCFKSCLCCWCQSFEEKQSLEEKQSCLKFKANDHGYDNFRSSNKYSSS
Protocol: 1) Inhibition of Endothelin Binding to Membranes from CHO Cells Carrying Human ET Receptors:
For competition binding studies, membranes of CHO cells expressing human recombinant ETA or ETB receptors were used. Microsomal membranes from recombinant CHO cells were prepared and the binding assay made as previously described (Breu V., et al, FEBS Lett 1993; 334:210).
The assay was performed in 200 uL 50 mM Tris/HCl buffer, pH 7.4, including 25 mM MnCl2, 1 mM EDTA and 0.5% (w/v) BSA in polypropylene microtiter plates. […]. […] After two h, the membranes were filtered on, filterplates containing GF/C filters (Unifilterplates from Canberra Packard S. A. Zürich, Switzerland). To each well, 50 uL of scintillation cocktail was added (MicroScint 20, Canberra Packard S. A. Zürich, Switzerland) and the filter plates counted in a microplate counter (TopCount, Canberra Packard S. A. Zürich, Switzerland).
All the test compounds were dissolved, diluted and added in DMSO. […] […].

[3] = membranes of CHO cells expressing human recombinant ETA receptors, 8 pM [125I]ET-1, 2 h at 20° C.
[4] = membranes of CHO cells expressing human recombinant ETB receptors, 8 pM [125I]ET-1, 2 h at 20° C.

| Compound | pIC50 [1] | pIC50 [2] | pIC50 [1, 3] | pIC50 [2, 4] |
| --- | --- | --- | --- | --- |
| CCS(=O)(=O)NCCOc1nc(N2CCOCC2)nc(NS(=O)(=O)c2ccc(C(C)(C)C)cc2)c1Oc1ccccc1OC [Example 81, 4-tert.-butyl-N-[6-(2-ethanesulfonylamino-ethoxy)-2-(N-morpholino)-5-(o-methoxyphenoxy)-pyrimidin-4-yl]-benzenesulfonamide] | 6.98 | 5.91 | – | – |
| COc1ccccc1Oc1c(NS(=O)(=O)c2ccc(C(C)C)cn2)nc(C(F)(F)F)nc1OCCNS(=O)(=O)c1cccs1 [Example 54, 5-i.-propyl-N-[6-(2-((2-thiophene)-sulfonylamino)-ethoxy)-5-(o-methoxyphenoxy)-2-trifluoromethyl-4-pyrimidinyl]pyridine-2-sulfonamide] | 5.62 | 6.22 | – | – |
| COc1ccccc1Oc1c(NS(=O)(=O)c2ccc(C(C)C)cn2)nc(C)nc1OCCNS(C)(=O)=O [Example 23, 5-i.-propyl-N-[6-(ethoxy-2-methanesulfonamido)-5-(o-methoxyphenoxy)-2-methyl-4-pyrimidinyl]pyridine-2-sulfonamide] | 7.12 | 7.28 | – | – |
| COc1ccccc1Oc1c(NS(=O)(=O)c2ccc(C(C)C)cn2)nc(N2CCOCC2)nc1OCCNS(=O)(=O)c1cccs1 [Example 42, 5-isopropyl-N-[6-(2-(2-thiophensulfonyl)-amino-ethoxy)-5-(o-methoxyphenoxy)-2-(N-morpholino)-4-pyrimidinyl]-2-pyridine sulfonamide] | – | – | 6.23 | 7.00 |
| COc1ccccc1Oc1c(NS(=O)(=O)c2ccc(C(C)C)cn2)nc(N2CCOCC2)nc1OCCNS(C)(=O)=O [Example 45, 5-isopropyl-N-[6-(2-methanesulfonylamino-ethoxy)-5-(o-methoxyphenoxy)-2-(N-morpholino)-4-pyrimidinyl]-2-pyridine sulfonamide] | 6.60 | 6.47 | – | – |
| COc1ccccc1Oc1c(NS(=O)(=O)c2ccc(C(C)C)cn2)nc(C2CC2)nc1OCCCNS(=O)(=O)c1ccc(C)cc1 [Example 94, 5-i.-propyl-N-[6-(3-(p-toluenesulfonylamino)-propoxy)-5-(o-methoxyphenoxy)-2-cyclopropyl-4-pyrimidinyl]-pyridine-2-sulfonamide] | – | 7.73 | 7.11 | – |
| CCS(=O)(=O)NCCCOc1nc(C2CC2)nc(NS(=O)(=O)c2ccc(C(C)C)cn2)c1Oc1ccccc1OC [Example 91, 5-i.-propyl-N-[6-(3-(ethanesulfonylamino)-propoxy)-5-(o-methoxyphenoxy)-2-cyclopropyl-4-pyrimidinyl]-pyridine-2-sulfonamide] | – | – | 7.34 | 6.99 |
| CCS(=O)(=O)NCCOc1nc(S(C)(=O)=O)nc(NS(=O)(=O)c2ccc(C(C)(C)C)cc2)c1Oc1ccccc1OC [Example 36g] | 6.92 | 7.03 | – | – |
| COc1ccccc1Oc1c(NS(=O)(=O)c2ccc(C(C)C)cn2)nc(-c2ccncc2)nc1OCCNS(=O)(=O)C(F)(F)F [Example 74] | 6.27 | 6.03 | – | – |
| COc1ccccc1Oc1c(NS(=O)(=O)c2ccc(C(C)C)cn2)nc(-c2ncccn2)nc1OCCNS(=O)(=O)c1cccs1 [Example 68, 5-isopropyl-N-[6-(2-(2-thiophenesulfonylamino)-ethoxy)-5-(o-methoxyphenoxy)-2-(2-pyrimidinyl)-4-pyrimidinyl]-2-pyridine sulfonamide] | 6.32 | 6.77 | – | – |
| CCS(=O)(=O)NCCOc1nc(-c2ccncc2)nc(NS(=O)(=O)c2ccc(C)cn2)c1Oc1ccccc1OC [Example 77, 5-methyl-N-[6-(2-(ethanesulfonylamino)-ethoxy)-5-(o-methoxyphenoxy)-2-(4-pyridyl)-4-pyrimidinyl]-2-pyridine sulfonamide] | – | – | 6.73 | 5.27 |
| 5-i-propyl-N-[6-(2-ethanesulfonylamino-ethoxy)-5-(o-methoxyphenoxy)-2-cyclopropyl-pyrimidin-4-yl]-pyridine-2-sulfonamide [Example 38] | – | – | 7.10 | 7.08 |
| COc1ccccc1Oc1c(NS(=O)(=O)c2ccc(C(C)C)cn2)nc(C2CC2)nc1OCCCNS(=O)(=O)c1cccs1 [Example 93, 5-i.-propyl-N-[6-(3-(2-thiophenesulfonylamino)-propoxy)-5-(o-methoxyphenoxy)-2-cyclopropyl-4-pyrimidinyl]-pyridine-2-sulfonamide] | – | 8.41 | 7.65 | – |
| COc1ccccc1Oc1c(NS(=O)(=O)c2ccc(C)cn2)nc(N2CCOCC2)nc1OCCNS(=O)(=O)c1cccs1 [Example 58, 5-methyl-N-[6-(2-(thiophene-2-sulfonylamino)-ethoxy)-5-(o-methoxyphenoxy)-2-(N-morpholino)-4-pyrimidinyl]-2-pyridine sulfonamide] | – | – | – | 6.35 |

Results, then the compound that gave them:

| pIC50 [1] | pIC50 [2] | pIC50 [1, 3] | pIC50 [2, 4] | Compound |
| --- | --- | --- | --- | --- |
| 5.25 | 6.45 | – | – | COc1ccccc1Oc1c(NS(=O)(=O)c2ccc(C(C)(C)C)cc2)nc(-c2ncccn2)nc1OCCNS(=O)(=O)C(F)(F)F [Example 5, p-tert.-butyl-N-[6-(ethoxy-2-trifluoromethanesulfonamido)-5-(o-methoxyphenoxy)-2-(2-pyrimidinyl)-4-pyrimidinyl]benzene-sulfonamide] |
| 6.35 | 6.79 | – | – | COc1ccccc1Oc1c(NS(=O)(=O)c2ccc(C(C)(C)C)cc2)nc(C)nc1OCCNS(=O)(=O)c1cccs1 [Example 62, 4-tert.-butyl-N-[6-(2-(2-thiophenesulfonylamino)-ethoxy)-5-(o-methoxyphenoxy)-2-methyl-4-pyrimidinyl]-benzene sulfonamide] |
| 6.39 | 6.13 | – | – | CCS(=O)(=O)NCCOc1ncnc(NS(=O)(=O)c2ccc(C(C)(C)C)cc2)c1Oc1ccccc1OC [Example 31, 4-tert.-butyl-N-{6-[2-(ethanesulfonylamino)-ethoxy]-5-(o-methoxy-phenoxy)-pydmidin-4-yl}-benzenesulfonamide] |
| 5.90 | 6.63 | – | – | COc1ccccc1Oc1c(NS(=O)(=O)c2ccc(C(C)(C)C)cc2)ncnc1OCCNS(=O)(=O)c1cccs1 [Example 29, 4-tert.-butyl-N-{6-[2-(2-thiophenesulfonyl-amino)-ethoxy]-5-(o-methoxy-phenoxy)-pydmidin-4-yl}-benzenesulfonamide] |
| – | – | 6.92 | 6.49 | CCS(=O)(=O)NCCOc1nc(C2CC2)nc(NS(=O)(=O)c2ccc(C(C)(C)C)cc2)c1Oc1ccccc1OC [Example 44, 4-tert.-butyl-N-[6-(2-ethanesulfonylamino-ethoxy)-5-(o-methoxyphenoxy)-2-cyclopropyl-pyrimidin-4-yl]-benzene-sulfonamide] |
| – | – | 5.08 | 6.38 | COc1ccccc1Oc1c(NS(=O)(=O)c2ccc(C(C)(C)C)cc2)nc(-c2ncccn2)nc1OCCNS(=O)(=O)c1ccc(C)cc1 [Example 6, p-tert.-butyl-N-[6-(ethoxy-2-p-toluenesulfonamido)-5-(o-methoxyphenoxy)-2-(2-pyrimidinyl)-4-pyrimidinyl]benzene-sulfonamide] |
| – | 8.39 | – | – | COc1ccccc1Oc1c(NS(=O)(=O)c2ccc(C(C)(C)C)cc2)nc(-c2ncccn2)nc1OCCCNS(=O)(=O)c1cccs1 [Example 90, 4-tert.-butyl-N-[6-(3-(2-thiophenesulfonylamino)-propoxy)-5-(o-methoxyphenoxy)-2-pyrimidinyl-4-pyrimidinyl]-benzene-sulfonamide] |
